Measured values: patent US10670605B2, “Cysteine reactive probes and uses thereof” (The Scripps Research Institute, priority 2015, dated 2020)

Tests used:
Assay in all cases: Competitive isoTOP-ABPP in situ (fragment-treated cells)
Assay type in all cases: cell-based
[1] = target: T1, cysteines in MDA-MB-231 and Ramos cells (Homo sapiens, UniProt O15294)
T1 sequence (O15294 1-1046): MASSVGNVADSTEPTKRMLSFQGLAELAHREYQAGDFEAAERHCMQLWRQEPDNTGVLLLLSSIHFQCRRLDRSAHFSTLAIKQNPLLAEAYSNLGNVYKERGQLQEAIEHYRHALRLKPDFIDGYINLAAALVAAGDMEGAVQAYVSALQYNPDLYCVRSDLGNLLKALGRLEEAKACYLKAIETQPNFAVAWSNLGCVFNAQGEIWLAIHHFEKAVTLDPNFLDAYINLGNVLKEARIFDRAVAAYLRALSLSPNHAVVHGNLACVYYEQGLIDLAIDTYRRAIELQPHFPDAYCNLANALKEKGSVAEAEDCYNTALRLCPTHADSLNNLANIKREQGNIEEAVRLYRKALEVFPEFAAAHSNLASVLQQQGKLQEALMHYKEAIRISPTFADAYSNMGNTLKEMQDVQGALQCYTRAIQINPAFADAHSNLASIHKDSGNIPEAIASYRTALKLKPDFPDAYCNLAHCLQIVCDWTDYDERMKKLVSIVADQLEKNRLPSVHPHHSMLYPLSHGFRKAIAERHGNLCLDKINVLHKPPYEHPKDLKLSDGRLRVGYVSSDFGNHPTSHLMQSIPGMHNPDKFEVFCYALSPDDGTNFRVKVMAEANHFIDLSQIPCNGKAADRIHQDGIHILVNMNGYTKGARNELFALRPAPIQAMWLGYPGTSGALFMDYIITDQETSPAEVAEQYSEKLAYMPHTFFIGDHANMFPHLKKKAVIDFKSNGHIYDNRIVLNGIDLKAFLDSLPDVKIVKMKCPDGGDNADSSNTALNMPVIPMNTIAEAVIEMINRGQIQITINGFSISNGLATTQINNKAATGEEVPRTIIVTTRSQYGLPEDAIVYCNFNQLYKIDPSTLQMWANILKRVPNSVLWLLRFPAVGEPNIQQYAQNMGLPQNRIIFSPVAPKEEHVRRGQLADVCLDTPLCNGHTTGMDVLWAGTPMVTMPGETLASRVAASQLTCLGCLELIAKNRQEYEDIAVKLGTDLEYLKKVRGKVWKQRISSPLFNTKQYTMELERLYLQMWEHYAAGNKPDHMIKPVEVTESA

[2] = target: T2, cysteines in MDA-MB-231 and Ramos cells (Homo sapiens, UniProt P21980)
T2 sequence (P21980 1-687): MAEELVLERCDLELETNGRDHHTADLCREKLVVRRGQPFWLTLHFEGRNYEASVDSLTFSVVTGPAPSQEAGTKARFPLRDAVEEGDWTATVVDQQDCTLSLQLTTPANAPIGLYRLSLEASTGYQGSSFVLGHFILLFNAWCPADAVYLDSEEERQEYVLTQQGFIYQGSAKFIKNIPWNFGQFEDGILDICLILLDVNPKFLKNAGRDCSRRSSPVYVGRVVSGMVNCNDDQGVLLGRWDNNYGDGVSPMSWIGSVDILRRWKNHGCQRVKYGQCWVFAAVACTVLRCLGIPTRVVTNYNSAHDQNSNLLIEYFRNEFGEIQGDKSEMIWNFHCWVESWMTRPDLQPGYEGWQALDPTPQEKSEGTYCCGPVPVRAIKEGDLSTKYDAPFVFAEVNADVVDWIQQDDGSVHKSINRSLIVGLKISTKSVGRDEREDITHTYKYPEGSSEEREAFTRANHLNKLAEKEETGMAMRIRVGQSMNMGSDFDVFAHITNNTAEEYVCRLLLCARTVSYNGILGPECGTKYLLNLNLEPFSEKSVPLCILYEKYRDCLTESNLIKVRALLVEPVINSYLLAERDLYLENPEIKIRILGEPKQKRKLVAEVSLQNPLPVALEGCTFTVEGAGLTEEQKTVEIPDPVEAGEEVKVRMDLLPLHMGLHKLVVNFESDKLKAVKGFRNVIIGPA

[3] = target: T3, cysteines in MDA-MB-231 and Ramos cells (Homo sapiens, UniProt Q9BTA9)
T3 sequence (Q9BTA9 1-647): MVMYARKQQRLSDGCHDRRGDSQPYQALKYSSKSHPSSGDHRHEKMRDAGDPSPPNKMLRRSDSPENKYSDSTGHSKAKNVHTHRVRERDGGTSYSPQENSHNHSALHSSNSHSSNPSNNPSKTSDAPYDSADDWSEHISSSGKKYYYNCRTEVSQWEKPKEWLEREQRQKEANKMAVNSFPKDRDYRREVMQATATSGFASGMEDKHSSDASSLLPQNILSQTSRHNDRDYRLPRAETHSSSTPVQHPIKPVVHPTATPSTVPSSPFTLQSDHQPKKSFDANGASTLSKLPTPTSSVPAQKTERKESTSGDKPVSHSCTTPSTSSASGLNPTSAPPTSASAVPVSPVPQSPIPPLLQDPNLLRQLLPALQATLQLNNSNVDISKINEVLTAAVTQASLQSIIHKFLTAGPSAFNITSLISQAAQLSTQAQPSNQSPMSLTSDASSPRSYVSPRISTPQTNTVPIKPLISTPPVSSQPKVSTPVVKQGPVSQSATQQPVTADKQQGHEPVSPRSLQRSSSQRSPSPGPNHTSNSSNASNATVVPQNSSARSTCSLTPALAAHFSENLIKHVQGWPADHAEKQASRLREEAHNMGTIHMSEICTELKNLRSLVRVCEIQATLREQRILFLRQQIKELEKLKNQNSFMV

[4] = target: T4, cysteines in MDA-MB-231 and Ramos cells (Homo sapiens, UniProt P23919)
T4 sequence (P23919 1-212): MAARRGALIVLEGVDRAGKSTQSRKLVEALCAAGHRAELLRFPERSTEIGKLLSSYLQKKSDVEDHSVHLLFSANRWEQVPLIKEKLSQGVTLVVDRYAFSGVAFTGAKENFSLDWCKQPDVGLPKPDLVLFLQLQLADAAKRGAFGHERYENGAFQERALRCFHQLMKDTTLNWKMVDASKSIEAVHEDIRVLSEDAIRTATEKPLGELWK

[5] = target: cysteines in MDA-MB-231 and Ramos cells (Homo sapiens, UniProt P38606)
cysteines in MDA-MB-231 and Ramos cells (Homo sapiens, UniProt P38606), sequence (P38606 whole entry): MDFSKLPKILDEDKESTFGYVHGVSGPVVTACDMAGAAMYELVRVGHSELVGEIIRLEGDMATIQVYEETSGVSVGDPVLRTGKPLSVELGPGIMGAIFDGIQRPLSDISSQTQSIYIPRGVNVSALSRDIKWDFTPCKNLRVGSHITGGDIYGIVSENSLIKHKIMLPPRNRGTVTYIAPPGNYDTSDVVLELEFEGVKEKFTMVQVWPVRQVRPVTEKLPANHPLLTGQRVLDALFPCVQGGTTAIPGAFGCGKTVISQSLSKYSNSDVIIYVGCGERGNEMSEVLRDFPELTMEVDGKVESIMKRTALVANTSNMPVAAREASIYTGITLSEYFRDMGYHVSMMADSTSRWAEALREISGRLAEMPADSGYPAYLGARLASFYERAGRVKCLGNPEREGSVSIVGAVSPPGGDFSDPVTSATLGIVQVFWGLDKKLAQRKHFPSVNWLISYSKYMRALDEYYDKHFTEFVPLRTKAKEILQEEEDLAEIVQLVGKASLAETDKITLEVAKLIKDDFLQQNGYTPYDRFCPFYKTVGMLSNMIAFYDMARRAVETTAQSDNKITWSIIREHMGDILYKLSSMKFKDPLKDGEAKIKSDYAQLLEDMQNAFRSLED

COc1ccc2c(c1)CCCN2C(=O)CCl [compound 2]
isoTOP-ABPP reactivity 015294_C758 OGT ([1]; 200 μM, insitu, 231): 2.6
isoTOP-ABPP reactivity P21980_C277 TGM2 ([2]; 200 μM, insitu, 231): 0.7
isoTOP-ABPP reactivity Q9BTA9_0553 WAC ([3]; 200 μM, insitu, 231): 17.6

COc1ccc(C2CC(c3cccs3)=NN2C(=O)CCl)cc1 (stereo not drawn) [compound 4]
isoTOP-ABPP reactivity 015294_C758 OGT ([1]; 100 μM in situ 231): 6.4
isoTOP-ABPP reactivity O15294_C620 OGT ([1]; 100 μM in situ 231): 20.0
isoTOP-ABPP reactivity P21980_C277 TGM2 ([2]; 100 μM in situ 231): 0.5
isoTOP-ABPP reactivity P23919_C163 DTYMK ([4]; 100 μM in situ 231): 0.4
isoTOP-ABPP reactivity P38606_C138 ATP6V1A ([5]; 100 μM in situ 231): 20.0
isoTOP-ABPP reactivity Q9BTA9_0553 WAC ([3]; 100 μM in situ 231): 17.8

COc1cc2c(cc1OC)CN(C(=O)CCl)CC2 [compound 8]
isoTOP-ABPP reactivity 015294_C758 OGT ([1]; 200 μM, insitu, 231): 2.4
isoTOP-ABPP reactivity P21980_C277 TGM2 ([2]; 200 μM, insitu, 231): 0.7
isoTOP-ABPP reactivity P23919_C117 DTYMK ([4]; 200 μM, insitu, 231): 0.4
isoTOP-ABPP reactivity P23919_C163 DTYMK ([4]; 200 μM, insitu, 231): 0.6
isoTOP-ABPP reactivity P38606_C138 ATP6V1A ([5]; 200 μM, insitu, 231): 20.0
isoTOP-ABPP reactivity Q9BTA9_0553 WAC ([3]; 200 μM, insitu, 231): 9.6

O=C(CCl)N1CCC(Cc2ccccc2)CC1 [compound 9]
isoTOP-ABPP reactivity 015294_C758 OGT ([1]; 200 μM, insitu, 231): 2.1
isoTOP-ABPP reactivity P21980_C277 TGM2 ([2]; 200 μM, insitu, 231): 2.3
isoTOP-ABPP reactivity P23919_C117 DTYMK ([4]; 200 μM, insitu, 231): 7.3
isoTOP-ABPP reactivity P38606_C138 ATP6V1A ([5]; 200 μM, insitu, 231): 20.0

O=C(CCl)N1CCN(S(=O)(=O)c2ccccc2F)CC1 [compound 10]
isoTOP-ABPP ratio O15294_C758 ([1]; 200 μM, insitu, 231): 2.3
isoTOP-ABPP ratio, cysteine O15294_C620 ([1]; 200 μM, insitu, ramos): 12 .0
isoTOP-ABPP ratio P21980_C277 ([2]; 200 μM, insitu, 231): 0.6
isoTOP-ABPP ratio, cysteine P23919_C117 ([4]; 200 μM, insitu, 231): 0.4
isoTOP-ABPP ratio P38606_C138 ([5]; 200 μM, insitu, 231): 20.0
isoTOP-ABPP ratio Q9BTA9_C553 ([3]; 200 μM, insitu, 231): 20.0

Cn1cc(S(=O)(=O)N2CCOCC2)cc1C(=O)NC(=O)CCl [compound 11]
isoTOP-ABPP ratio O15294_C758 ([1]; 100 μM in situ 231): 1.0
isoTOP-ABPP ratio P21980_C277 ([2]; 100 μM in situ 231): 0.6
isoTOP-ABPP ratio, cysteine P23919_C163 ([4]; 100 μM in situ 231): 0.2
isoTOP-ABPP ratio P38606_C138 ([5]; 100 μM in situ 231): 9.2
isoTOP-ABPP ratio Q9BTA9_C553 ([3]; 100 μM in situ 231): 1.7

O=C(CCl)NC(=O)NC12CC3CC(CC(C3)C1)C2 [compound 12]
isoTOP-ABPP ratio O15294_C758 ([1]; 200 μM, insitu, 231): 20.0
isoTOP-ABPP ratio P21980_C277 ([2]; 200 μM, insitu, 231): 0.3
isoTOP-ABPP ratio, cysteine P23919_C117 ([4]; 200 μM, insitu, 231): 0.2
isoTOP-ABPP ratio P38606_C138 ([5]; 200 μM, insitu, 231): 20.0

O=C(CCl)NCCc1c[nH]c2ccccc12 [compound 13]
isoTOP-ABPP ratio O15294_C758 ([1]; 200 μM, insitu, 231): 1.0
isoTOP-ABPP ratio P21980_C277 ([2]; 200 μM, insitu, 231): 0.8
isoTOP-ABPP ratio, cysteine P23919_C117 ([4]; 200 μM, insitu, 231): 0.6
isoTOP-ABPP ratio P38606_C138 ([5]; 200 μM, insitu, 231): 20.0
isoTOP-ABPP ratio Q9BTA9_C553 ([3]; 200 μM, insitu, 231): 1.4
